In patent US12281332B2, “Methods of enhancing development of renal organoids and methods of using the same” (President and Fellows of Harvard College, priority 2017, dated 2025):
“Also recorded” adds a separate entry of the source.

How the values were obtained:
Format in all cases: cell-based, human
kidney organoids [1] = assay: Abundance of vasculature in kidney organoids, PECAM1/CD31 immunostaining and Angiotool; settings: for effect on vasculature formation / vascular growth (summary of studies): FBS 1.5 to 2%; for effect on the CD31+ population of cells (extent and abundance of vasculature): developing organoids age 11-14 Days, additives in advanced RPMI, static and perfused conditions; for vessel % area: high FSS, endogenous VEGF vs VEGF addition vs VEGF inhibition
Description: Methods: To determine effects of chemical additives on the developing developing organoids, the vesicles (age 11, 12, 13 and 14 Days) were treated with VEGF additives, GMEC media, PMA additives, antibiotics, or FBS or FCS additives and other components in advanced RPMI media as a base in both static and perfused conditions. The extent and abundance of vasculature was studied using immunostaining.
Confocal Z-stacks of PECAM1 were taken of fixed whole mount organoids, both iPSC and ESC derived, in the various culture conditions. The Z-stacks were taken at the limit of the confocal depth with each sample, roughly […] per sample which represents approximately the same volume per organoid analyzed. Those z-stacks were then flattened using ImageJ to a 2D max intensity projection (as required by the Angiotool for input). The default settings were employed on the Angiotool for analysis and vessel diameters of 4, 7, 10, and 14 were analyzed for each organoid. In all cases, the whole organoid was used for analysis.

[2] = system: PODXL+ glomeruli-like compartments of kidney organoids; assay: Vascular invasion of PODXL+ podocyte clusters in kidney organoids on chip, confocal imaging; settings: high FSS, 10 days on chip; bevacizumab, VEGF 100 ng/mL
Description: Glomerular structures of kidney organoids in static culture are largely avascular. Upon animal transplantation, host-derived vascularization of kidney organoids Promotes glomerular vascularization. To determine whether FSS-induced vascularization of organoids in vitro extends to glomerular compartments, PODXL^+ podocyte clusters invaded by MCAMI^+ PECAM1^+ vascular structures were quantified using confocal imaging, in static and high FSS conditions (FIG. 18A and FIG. 18B). […] Given that there is significant upregulation of VEGF-A expression with high FSS (FIG. 18C), organoids cultured under flow can be used to study the role of VEGF in glomerular vascularization in vitro.
As vessel % area is unchanged between endogenous VEGF, VEGF addition, and VEGF inhibition, the difference in glomerular vascularization cannot be attributed to increased abundance of vasculature alone. Meanwhile, the reduced junctional density and increased average vessel length in unperturbed VEGF conditions may be interpreted as vessels growing towards an endogenous VEGF gradient versus more random sporadic growth in the absence of a gradient. Growing with the endogenous VEGF gradient under high flow conditions may allow vessels to reach glomeruli-like compartments in time to invade rather than wrap Bowman's capsule-like structures. […]

kidney organoids [3] = assay: Association of PECAM1+ vasculature with LTL+ tubules, Imaris analysis; settings: for vasculotubular association (percent of vasculature surface area overlapping with LTL+ tubules): 10 days of high flow culture, VEGF 100 ng/mL or VEGF inhibitor in the media
Description: Additionally, enhanced PECAM1^+ networks under high FSS associate with tubular structures in both transverse and longitudinal orientations (FIG. 16(d) and FIG. 17). The researchers quantified the association between PECAM1^+ networks and LTL^+tubules using Imaris surface rendering, distance transformation, and masking tools and reveal that under high flow conditions the percent of vascular surface area in contact with tubules is increased nearly 3 fold in comparison to organoids in static culture (FIG. 17(d)).
Confocal Z-stacks of PECAM1 and LTL were taken of fixed whole mount organoids, both iPSC and ESC derived, in the various culture conditions. The Z-stacks were taken at the limit of the confocal depth with each sample, roughly […] per sample which represents approximately the same volume per organoid analyzed. Those z-stacks were then opened in Imaris imaging software. The confocal 3D rendering was turned into a vascular surface and a tubule surface. Then the Imaris surface on surface area contact tool was used to quantify the percent overlap between the vascular and tubular surfaces in 3D, values were reported in FIG. 17(d). In order to assess the average distance the vasculature was away from a tubule, first an Imaris distance transformation was performed on the tubule surface. Then the resulting channel was masked by the vascular surface to create a new masked distance transformation channel. That masked distance transformation channel was opened in Fiji (ImageJ) to retrieve a histogram of all the 3D points, from which we obtained a geometric mean for each sample which is reported in FIG. 17(c).

Molecule | effect on vasculature formation / vascular growth (summary of studies) (kidney organoids [1]) | effect on the CD31+ population of cells (extent and abundance of vasculature) (kidney organoids [1]) | incidence of invasion of PODXL+ glomeruli-like compartments by PECAM1+MCAM+ vascular networks [2] | vasculotubular association (percent of vasculature surface area overlapping with LTL+ tubules) (kidney organoids [3]) | vessel % area (kidney organoids [1]) | average distance in 3D between the vasculature and the tubules (kidney organoids [3]; high flow+VEGF compared with static) | outgrowth of endothelial-like cells (kidney organoids [1]; addition of VEGF) | vascular abundance (kidney organoids [1]; culture under FSS, VEGF added in the media) | vascular abundance (kidney organoids [1]; static culture, exogenous VEGF)
CCCCCCCCCCCCCC(=O)O[C@@H]1[C@@H](C)[C@@]2(O)[C@@H](C=C(CO)C[C@]3(O)C(=O)C(C)=C[C@@H]23)[C@@H]2C(C)(C)[C@]12OC(C)=O [PMA, reference compound] | did not help | no measureable effects | – | – | – | – | – | – | –
bevacizumab [reference compound] | – | – | significantly reduced | decouples these associations and returns values consistent with static culture levels; also recorded: negated | unchanged | – | – | – | –
vascular endothelial growth factor [VEGF] | did not help | no measureable effects | significantly reduced | decouples these associations and returns values consistent with static culture levels; also recorded: negated | unchanged | not statistically significantly different | robust outgrowth of endothelial-like cells | didn't change | did increase
